From article PMC10482350, “Nucleoside diphosphate kinases 1 and 2 regulate a protective liver response to a high-fat diet” (Science Advances, 2023)

Legend:
[1] = molecular target: T1, NME1 (Mus musculus, UniProt P15532); test: histidine phosphorylation (native gel, native MS); release of NME1 from CoA beads; format: biochemical; design: full-length recombinant
[2] = molecular target: T1, NME1; test: ITC; crystal structure ([…] Å), native MS, nanoDSF; format: binding; design: full-length, His-tag cleaved by TEV
[3] = molecular target: T2, NME2 (Mus musculus, UniProt Q01768); test: CoA-agarose pull-down of GST-NME2 from bacterial extract; format: cell-based
T2 construct: full-length, GST-tagged

[4] = molecular target: T1, NME1; test: dephosphorylation of phosphohistidine NME1 (immunoblot); format: biochemical; design: full-length recombinant
[5] = molecular target: the molecule itself; test: native MS; recombinant purified NME1 without ligand or incubated with CoA, AcCoA, SucCoA, dephospho-CoA or ATP; charge states +22 and +21 of the hexamer; methods in the Supplementary Materials

T2 sequence (Q01768 whole entry): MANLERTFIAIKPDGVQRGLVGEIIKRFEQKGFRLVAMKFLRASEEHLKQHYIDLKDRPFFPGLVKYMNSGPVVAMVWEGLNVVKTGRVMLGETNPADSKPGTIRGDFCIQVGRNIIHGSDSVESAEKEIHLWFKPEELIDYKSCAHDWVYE

Nc1ncnc2c1ncn2[C@@H]1O[C@H](COP(=O)(O)OP(=O)(O)OP(=O)(O)O)[C@@H](O)[C@H]1O [ATP]
histidine phosphorylation (native gel, native MS); release of NME1 from CoA bead [1]: recombinant murine NME1 purified from bacteria could be phosphorylated by ATP and subsequently dephosphorylated by ADP or guanosine diphosphate (GDP)

CC(C)(COP(=O)(O)OP(=O)(O)OC[C@H]1O[C@@H](n2cnc3c(N)ncnc32)[C@H](O)[C@@H]1OP(=O)(O)O)[C@@H](O)C(=O)NCCC(=O)NCCS [CoA]
Kd [2]: ~18 µM | CoA-agarose pull-down of GST-NME2 from bacterial extract [3]: NME2 exhibits an ATP-sensitive CoA binding activity comparable to that of NME1 (fig. S11A)

Nc1nc2c(ncn2[C@@H]2O[C@H](CO[P@](=O)(O)OP(=O)(O)O)[C@@H](O)[C@H]2O)c(=O)[nH]1 [GDP]
dephosphorylation of phosphohistidine NME1 (immunoblot) [4]: phosphorylated by ATP and subsequently dephosphorylated by ADP or guanosine diphosphate (GDP)

B1: nucleoside diphosphate kinase 1 (NME1), recombinant murine (enzyme, mouse, UniProt P15532 1-152, looked up)
chain: MANSERTFIAIKPDGVQRGLVGEIIKRFEQKGFRLVGLKFLQASEDLLKEHYTDLKDRPFFTGLVKYMHSGPVVAMVWEGLNVVKTGRVMLGETNPADSKPGTIRGDFCIQVGRNIIHGSDSVKSAEKEISLWFQPEELVEYKSCAQNWIYE
notes: also called NDPK 1; WT NME1; source: E. coli BL21-Gold(D3), purified (HisTrap, TEV cleavage, Superdex 200 SEC); not shown: His6, N-terminal, cleaved
stoichiometry N [5]: 6
